Patent US9573956B2, “Compounds as dual inhibitors of phosphodiesterases and histone deacetylases” (FUNDACIÓN PARA LA INVESTIGACIÓN MÉDICA APLICADA, priority 2013, dated 2017)
Like-named read-outs stand apart in the source and are kept apart here. Marks after values point to notes of the source that are not given here.

How the values were obtained:
[1] = biological target: T1, PDE9A isoform b (Homo sapiens, UniProt O76083); test: PDE enzyme activity assay (HTRF cGMP), PDE9A; assay type: biochemical; details: recombinant enzyme; read-out: PDE9A inhibition (IC50)
T1 construct: they are full-length with N-terminal GST tag; GST (N); purchased BPS Biosciences 60090; host or cells: baculovirus infected Sf9 cells

[2] = biological target: HDAC1 (Homo sapiens, UniProt Q13547); test: HDAC enzyme activity assay (fluorogenic substrate), HDAC1; assay type: biochemical; details: read-out: HDAC1 inhibition (IC50)
[3] = test system: AcH3; test: In-vivo activity, hippocampus of wild type mice: AcH3; set-up: species or system mouse; details: i.p. 40 mg/kg, hippocampus one hour later
Description: (§1) To determine the ability of the compounds to inhibit HDAC and PDE in the brain, the compound was administered to wild type mice by i.p. at a dose of 40 mg/kg (n=3). Another group of animals received the vehicle (1/1/8, v:v:v, DMSO/Tween 20/saline). One hour later, mice were sacrificed by cervical dislocation and their hippocampus was quickly dissected from the brains.
(§2) Total tissue homogenates were obtained by homogenizing the hippocampus in a cold lysis buffer with protease inhibitors (0.2 M NaCl, 0.1 M HEPES, 10% glycerol, 200 mM NaF, 2 mM Na4P2O7, 5 mM EDTA, 1 mM EGTA, 2 mM DTT, 0.5 mM PMSF, 1 mM Na3VO4 and Complete Protease Inhibitor Cocktail, Roche Diagnostics). The homogenate was then centrifuged at 14,000×g at 4° C. for 20 min and the supernatant aliquoted and stored at −80° C. Total protein concentrations were determined using the BioRad Bradford protein assay (BioRad Laboratories). Protein samples were analyzed as described in the “in vitro” section.

[4] = biological target: T2, PDE5A (Homo sapiens, UniProt O76074); test: PDE enzyme activity assay (HTRF cGMP), PDE5A; assay type: biochemical; details: recombinant enzyme; read-out: PDE5A1 inhibition (IC50)
T2 construct: they are full-length with N-terminal GST tag; GST (N); purchased BPS Biosciences 60050; host or cells: baculovirus infected Sf9 cells

[5] = test system: acetylated histone 3 at Lys9 (AcH3K9); test: HDAC activity in wild type primary neurons (Western blot AcH3K9); assay type: cell-based, mouse; details: Mus musculus, Neuron, 0.5 h, 30 min, EC50 = 50% increase in AcH3K9 over basal, read-out: AcH3 (EC50)
[6] = test system: pCREB; test: In-vivo activity, hippocampus of wild type mice: pCREB; set-up: species or system mouse; details: i.p. 40 mg/kg, hippocampus one hour later
Description: as §1, §2

[7] = test system: pCREB; test: PDE activity in wild type primary neurons (Western blot pCREB); assay type: cell-based; details: Mus musculus, Neuron, 0.5 h, 30 min, EC50 = 50% increase in pCREB over basal
[8] = Pharmacokinetics, plasma and brain concentrations in wild type mice; assay type: in vivo; details: mouse, ip
Description: Plasma and brain samples for measuring compounds concentrations were collected at predetermined times from four wild type mice per point. Three time points were measured: 0.25, 0.5 and 1.0 hour. Compounds concentration was measured using a Xevo-TQ MS triple quadropole mass spectrometer with an electrospray ionization (ESI) source and an Acquity UPLC (Waters, Manchester, UK).
[…]. Compounds were injected as a single intraperitoneal injection. Animals were killed by decapitation.
Plasma. Blood was collected into tubes containing EDTA and plasma was collected via centrifugation (4° C., 13200 rpm, 5 min) and stored at −80° C. until analysis.
Brain. Brains were collected immediately after mice death. The brains were excised, weighed and frozen at −80° C. until further process for analysis.
Chromatographic separation was performed by gradient elution at 0.4 mL/min using an Acquity UPLC BEH C18 column (100×2.1 mm, 1.7 μm particle size; Waters). The mobile phase consisted of A: water with 0.1% formic acid, B: methanol with 0.1% formic acid. After 1.5 min at the initial condition of 95% A, solvent B was increased from 5% to 100% over 2 min, maintained at 100% for 1.5 min, then a linear gradient to initial conditions was applied for 0.1 min and maintained for 3.4 minutes to re-equilibrate the column, giving a cycle time of 8.5 min. The autosampler temperature was set at 10° C. and column temperature at 45° C.
Compounds were monitored using a triple quadrupole mass spectrometer equipped with an electrospray ionization interface. For detection and quantification, a capillary voltage of 3.5 kV and a cone voltage of 38 V were used. Source and desolvation temperatures were 150° C. and 650° C., respectively. Ultra-high purity nitrogen was used for cone gas (75 L h^−1) and desolvation gas (1000 L h^−1). The electrospray ionization operated in the positive mode, and the collision gas used was ultra-pure argon at a flow rate of 0.15 mL min^−1.
Quantification was achieved by external calibration using matrix-matched standards. Concentrations were calculated using a weighted least-squares linear regression (W=1/×). […]. The mixture was then agitated for 10 min and centrifuged at 13200 rpm for 5 min at 4° C. The resulting supernatants were transferred to a Ostro plate (Waters, Manchester, UK), designed to remove phospholipids. The resulting eluents were evaporated at 37° C. under a stream of nitrogen. Residues were dissolved in 75 μL of a mixture of methanol and water (50:50, v:v). A 10-uL aliquot of the resulting solution was injected onto the LC-MS/MS system for analysis. Frozen plasma samples were thawed at room temperature, vortexed thoroughly and subjected to the above described extraction procedure. Brain samples were thawed unassisted at room temperature and homogenized using a Branson 250 ultrasonic sonifier (Branson, Danbury, Conn., USA). When homogenized, 75 mg were weighted and extracted as described previously.
Concentration values obtained from the LC-MS/MS analyses are described in Table 4.

[9] = biological target: T3, HDAC2 (Homo sapiens, UniProt Q92769); test: HDAC enzyme activity assay (fluorogenic substrate), HDAC2; assay type: biochemical; details: recombinant enzyme; read-out: HDAC2 inhibition (IC50)
T3 construct: NM_001527; Cat. #50002) is full-length with C-terminal his tag; His (C); purchased BPS Biosciences 50002; host or cells: baculovirus infected Sf9 cells

[10] = biological target: T4, HDAC6 (Homo sapiens, UniProt Q9UBN7); test: HDAC enzyme activity assay (fluorogenic substrate), HDAC6; assay type: biochemical; details: recombinant enzyme; read-out: HDAC6 inhibition (IC50)
T4 construct: BC069243; Cat. #50006) is full-length with N-terminal GST tag; GST (N); purchased BPS Biosciences 50006; host or cells: baculovirus infected Sf9 cells
T4 sequence (Q9UBN7 1-1215): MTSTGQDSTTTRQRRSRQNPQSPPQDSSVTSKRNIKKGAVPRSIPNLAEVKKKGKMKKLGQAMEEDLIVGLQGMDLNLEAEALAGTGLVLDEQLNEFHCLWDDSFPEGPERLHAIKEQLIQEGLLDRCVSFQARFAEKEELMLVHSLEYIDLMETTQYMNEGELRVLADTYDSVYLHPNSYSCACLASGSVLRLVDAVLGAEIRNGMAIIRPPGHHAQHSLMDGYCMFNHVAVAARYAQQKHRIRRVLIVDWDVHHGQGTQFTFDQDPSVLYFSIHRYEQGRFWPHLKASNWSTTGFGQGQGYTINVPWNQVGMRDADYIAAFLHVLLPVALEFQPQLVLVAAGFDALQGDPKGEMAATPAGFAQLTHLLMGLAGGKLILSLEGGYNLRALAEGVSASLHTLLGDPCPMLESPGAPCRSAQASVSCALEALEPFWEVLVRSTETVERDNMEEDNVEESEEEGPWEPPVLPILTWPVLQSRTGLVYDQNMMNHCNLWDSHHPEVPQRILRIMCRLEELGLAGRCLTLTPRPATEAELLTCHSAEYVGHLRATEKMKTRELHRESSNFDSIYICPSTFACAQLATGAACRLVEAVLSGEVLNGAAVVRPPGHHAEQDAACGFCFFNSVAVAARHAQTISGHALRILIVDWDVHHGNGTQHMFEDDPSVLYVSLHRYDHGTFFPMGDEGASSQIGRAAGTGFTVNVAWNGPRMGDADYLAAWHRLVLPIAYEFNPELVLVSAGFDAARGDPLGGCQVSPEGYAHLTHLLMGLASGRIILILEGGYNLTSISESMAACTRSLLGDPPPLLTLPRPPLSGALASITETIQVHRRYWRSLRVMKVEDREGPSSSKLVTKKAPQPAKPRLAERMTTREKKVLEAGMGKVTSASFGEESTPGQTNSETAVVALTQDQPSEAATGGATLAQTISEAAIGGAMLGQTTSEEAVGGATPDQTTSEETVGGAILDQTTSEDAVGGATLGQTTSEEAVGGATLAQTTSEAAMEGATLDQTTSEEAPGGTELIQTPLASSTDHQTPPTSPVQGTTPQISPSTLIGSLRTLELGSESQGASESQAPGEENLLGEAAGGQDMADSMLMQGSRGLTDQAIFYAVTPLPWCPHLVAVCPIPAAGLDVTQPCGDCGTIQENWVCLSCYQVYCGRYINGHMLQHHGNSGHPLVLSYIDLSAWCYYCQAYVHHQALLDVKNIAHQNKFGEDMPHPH

[11] = biological target: T5, HDAC3 (Homo sapiens, UniProt O15379); test: HDAC enzyme activity assay (fluorogenic substrate), HDAC3; assay type: biochemical; details: recombinant enzyme; read-out: HDAC3 inhibition (IC50)
T5 construct: is full-length with C-terminal his tag and human NCOR2, N-terminal GST tag; His (C); purchased BPS Biosciences 50003; host or cells: baculovirus infected Sf9 cells

[12] = biological target: T6, PDE4A1 (Homo sapiens, UniProt P27815); test: PDE enzyme activity assay (HTRF cGMP), PDE4A1; assay type: biochemical; details: read-out: PDE4A1 inhibition (IC50)
T6 construct: they are full-length with N-terminal GST tag; GST (N); purchased BPS Biosciences 60040; host or cells: baculovirus infected Sf9 cells

[13] = biological target: PDE4D7 (Homo sapiens, UniProt Q08499); test: PDE enzyme activity assay (HTRF cGMP), PDE4D7; assay type: biochemical; details: read-out: PDE4D7 inhibition (IC50)
Excerpt: The biochemical assay to measure PDE5A, PDE9A isoform b, PDE4D7, and PDE4A1 enzyme activities relies on the HTRF cGMP assay kit from CisBio (CisBio, Cat. #62GM2PEB), that determines the amount of cGMP present in the reaction. The enzymes were obtained from BPS Biosciences (GenBank Accession number for PDE5A: NM_001083, Cat. #60050; PDE9A: NM_001001567, Cat. #60090; PDE4D7: NM_001165899, Cat. #60047; and PDE4A1: U97584, Cat. #60040) and they are full-length with N-terminal GST tag. They were expressed in a baculovirus infected Sf9 cell expression system.
For each enzyme, enzyme activity assay was carried out in a 384-well plate in a final volume of 20 μL, as follows: • 2.5 μL of vehicle or studied compound 4× concentrated prepared in assay buffer containing 50 mM Tris-HCl, 6 mM MgCl2, pH 7.4 (PDE5A, PDE4D7, PDE4A1) and additionally 0.03% Tween-20 (PDE9A). Final percentage of DMSO was 0.5%. • 2.5 μL of PDE5A (7 μg/mL) or 2.5 μL PDE9A (0.2 μg/mL) or 2.5 μL PDE4D7 (1.25 μg/mL) or 2.5 μL PDE4A1 (1.5 μg/mL) diluted in assay buffer. […]
Fluorescence of each well was determined at […] using the plate reader EnVision (Perkin-Elmer). Results were calculated from the 665 nm/620 nm ratio. […]

Sequence of HDAC1 (Q13547 whole entry): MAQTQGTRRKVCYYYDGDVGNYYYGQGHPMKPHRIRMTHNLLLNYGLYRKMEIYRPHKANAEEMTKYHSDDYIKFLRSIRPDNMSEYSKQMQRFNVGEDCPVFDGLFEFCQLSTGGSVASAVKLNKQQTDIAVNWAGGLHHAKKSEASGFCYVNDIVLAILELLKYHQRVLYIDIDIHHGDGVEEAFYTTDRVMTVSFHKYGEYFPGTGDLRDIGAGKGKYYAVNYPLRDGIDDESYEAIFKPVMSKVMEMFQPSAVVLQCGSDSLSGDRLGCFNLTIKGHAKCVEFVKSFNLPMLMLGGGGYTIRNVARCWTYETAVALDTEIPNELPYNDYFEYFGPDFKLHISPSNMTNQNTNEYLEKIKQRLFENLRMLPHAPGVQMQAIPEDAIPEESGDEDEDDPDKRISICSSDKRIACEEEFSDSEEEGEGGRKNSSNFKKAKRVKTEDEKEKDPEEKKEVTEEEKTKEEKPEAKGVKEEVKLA
T1 sequence (O76083 1-533 isoform O76083-2): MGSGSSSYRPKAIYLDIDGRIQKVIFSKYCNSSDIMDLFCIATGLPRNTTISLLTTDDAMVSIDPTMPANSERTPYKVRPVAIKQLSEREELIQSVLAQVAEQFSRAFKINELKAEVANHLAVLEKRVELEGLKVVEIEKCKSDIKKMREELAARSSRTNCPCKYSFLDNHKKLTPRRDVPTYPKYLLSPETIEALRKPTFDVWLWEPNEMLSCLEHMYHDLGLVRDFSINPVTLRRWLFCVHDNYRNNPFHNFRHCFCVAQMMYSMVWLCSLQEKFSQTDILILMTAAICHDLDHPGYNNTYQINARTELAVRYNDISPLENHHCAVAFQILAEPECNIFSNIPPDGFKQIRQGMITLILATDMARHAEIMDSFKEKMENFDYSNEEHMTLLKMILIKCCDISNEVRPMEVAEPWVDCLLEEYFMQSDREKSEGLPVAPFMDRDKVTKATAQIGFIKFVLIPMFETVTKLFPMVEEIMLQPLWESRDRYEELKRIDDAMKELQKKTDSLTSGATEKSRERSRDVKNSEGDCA
T6 sequence (P27815 1-647 isoform P27815-4): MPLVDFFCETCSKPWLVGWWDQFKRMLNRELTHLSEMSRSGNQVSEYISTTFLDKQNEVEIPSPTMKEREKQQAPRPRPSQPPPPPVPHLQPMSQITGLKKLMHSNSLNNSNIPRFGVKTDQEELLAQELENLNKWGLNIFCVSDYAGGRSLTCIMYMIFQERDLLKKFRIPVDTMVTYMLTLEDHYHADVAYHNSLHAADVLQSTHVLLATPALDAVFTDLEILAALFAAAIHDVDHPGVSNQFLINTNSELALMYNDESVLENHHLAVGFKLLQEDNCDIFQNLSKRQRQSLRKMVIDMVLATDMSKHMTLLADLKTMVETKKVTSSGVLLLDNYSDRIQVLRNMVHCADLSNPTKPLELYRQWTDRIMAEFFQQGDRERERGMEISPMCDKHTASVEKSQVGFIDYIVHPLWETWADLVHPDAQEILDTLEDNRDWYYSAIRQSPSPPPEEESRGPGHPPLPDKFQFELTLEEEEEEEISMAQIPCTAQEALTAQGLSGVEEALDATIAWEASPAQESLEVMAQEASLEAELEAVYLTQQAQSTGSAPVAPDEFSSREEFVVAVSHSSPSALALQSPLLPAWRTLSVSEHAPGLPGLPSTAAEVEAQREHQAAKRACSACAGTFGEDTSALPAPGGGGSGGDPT
T3 sequence (Q92769 whole entry): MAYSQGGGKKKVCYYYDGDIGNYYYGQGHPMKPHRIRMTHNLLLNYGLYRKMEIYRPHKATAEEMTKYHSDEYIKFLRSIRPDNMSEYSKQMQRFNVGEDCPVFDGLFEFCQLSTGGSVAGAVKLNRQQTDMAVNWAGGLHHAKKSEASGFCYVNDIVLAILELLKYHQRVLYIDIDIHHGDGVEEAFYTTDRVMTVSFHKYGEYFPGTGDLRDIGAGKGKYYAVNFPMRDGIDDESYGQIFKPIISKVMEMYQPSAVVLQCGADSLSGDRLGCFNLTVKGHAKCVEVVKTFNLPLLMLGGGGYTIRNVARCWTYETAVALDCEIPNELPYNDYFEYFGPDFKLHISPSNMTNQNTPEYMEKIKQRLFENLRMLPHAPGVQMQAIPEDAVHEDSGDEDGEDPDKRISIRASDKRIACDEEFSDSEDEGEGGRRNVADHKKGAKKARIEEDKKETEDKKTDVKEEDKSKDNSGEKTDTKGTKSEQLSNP
Sequence of PDE4D7 (Q08499 1-748 isoform Q08499-11): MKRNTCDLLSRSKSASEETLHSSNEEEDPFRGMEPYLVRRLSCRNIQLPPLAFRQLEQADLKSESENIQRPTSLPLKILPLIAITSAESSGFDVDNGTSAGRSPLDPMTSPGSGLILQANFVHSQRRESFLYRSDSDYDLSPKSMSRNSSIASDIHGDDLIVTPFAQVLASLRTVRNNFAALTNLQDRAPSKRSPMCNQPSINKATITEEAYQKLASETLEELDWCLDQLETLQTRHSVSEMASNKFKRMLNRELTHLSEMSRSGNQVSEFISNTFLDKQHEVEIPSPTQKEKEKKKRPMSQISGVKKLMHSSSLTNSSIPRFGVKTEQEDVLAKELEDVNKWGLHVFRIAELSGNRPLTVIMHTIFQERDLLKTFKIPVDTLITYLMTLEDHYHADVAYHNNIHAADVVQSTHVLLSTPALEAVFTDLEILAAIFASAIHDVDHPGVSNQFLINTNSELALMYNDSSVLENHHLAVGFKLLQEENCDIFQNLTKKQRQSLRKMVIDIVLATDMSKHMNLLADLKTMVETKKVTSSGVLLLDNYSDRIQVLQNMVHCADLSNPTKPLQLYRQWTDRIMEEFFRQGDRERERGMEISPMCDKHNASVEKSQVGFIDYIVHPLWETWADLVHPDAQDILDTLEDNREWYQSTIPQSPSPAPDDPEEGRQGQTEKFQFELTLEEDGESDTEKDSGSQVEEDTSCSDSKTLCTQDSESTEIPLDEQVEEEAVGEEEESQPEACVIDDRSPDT
T5 sequence (O15379 whole entry): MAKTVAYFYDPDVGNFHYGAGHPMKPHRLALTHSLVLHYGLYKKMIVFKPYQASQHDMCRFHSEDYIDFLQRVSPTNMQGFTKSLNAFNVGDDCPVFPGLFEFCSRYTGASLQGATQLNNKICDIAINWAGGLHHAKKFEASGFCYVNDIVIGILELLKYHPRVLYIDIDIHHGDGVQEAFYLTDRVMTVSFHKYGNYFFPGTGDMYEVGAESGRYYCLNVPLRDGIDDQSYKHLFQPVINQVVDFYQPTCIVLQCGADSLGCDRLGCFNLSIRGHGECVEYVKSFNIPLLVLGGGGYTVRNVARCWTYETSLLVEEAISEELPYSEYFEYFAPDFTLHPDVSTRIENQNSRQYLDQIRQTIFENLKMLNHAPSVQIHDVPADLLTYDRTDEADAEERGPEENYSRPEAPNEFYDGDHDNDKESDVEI
T5 sequence (Q9Y618 395-489 partner limits assumed): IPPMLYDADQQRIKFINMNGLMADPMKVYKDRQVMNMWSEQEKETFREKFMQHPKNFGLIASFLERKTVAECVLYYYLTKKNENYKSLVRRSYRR

Row | Compound | IC50 [1] [nM] | IC50 ([2]; recombinant enzyme) [nM] | AcH3, increment in biological response vs basal [3] | IC50 [4] [nM] | EC50 [5] [nM] | pCREB, increment in biological response vs basal [6] | EC50 [7] [nM] | other results
1 | CCCc1nn(C)c2c(=O)[nH]c(-c3cc(OC4CCN(c5ncc(C(=O)NO)cn5)CC4)ccc3OCC)nc12 [Example 1-12] | 1000 to 10000 | 10 to 1000 | ++ (basal×1≦(++)<basal×2) | 10 to 1000 | 10 to 1000 | +++ (basal×2≦(+++)<basal×3) | 10 to 1000 | CMax (brain; nmol/Kg) ([8]; in vivo, 40 mg/kg): 71.3 (19.5)^c nmol/Kg; Tmax ([8]; dosage 40 mg/Kg, single intraperitoneal injection, wild type mice, time of maximum concentration in brain): 15 min; Cmax ([8]; plasma, dosage 40 mg/Kg, single intraperitoneal injection, wild type mice, at tMax, (Standard Deviation)): 1880 nM
2 | CCCc1nn(C)c2c(=O)[nH]c(-c3cc(N(C)C4CCN(c5ncc(C(=O)NO)cn5)CC4)ccc3OCC)nc12 [Example 1-25] |  | 10 to 1000 |  | < 10 | 10 to 1000 |  | 1000 to 10000 | IC50 [9]: 10 to 1000 nM; IC50 [10]: 10 to 1000 nM; IC50 [11]: 10 to 1000 nM
3 | COc1ccc(N(C(=O)c2c(Cl)cncc2Cl)C2CCN(c3ncc(C(=O)NO)cn3)CC2)cc1OC1CCCC1 [Example 5-04] |  |  |  |  |  |  |  | IC50 [2]: 10 to 1000 nM; IC50 [12]: > 10000 nM; IC50 [13]: > 10000 nM
4 | C[C@@H]1CN(Cc2ncccn2)C[C@H]1c1nc2c(cnn2C2CCOCC2)c(=O)[nH]1 [PF-4447943, 6-[(3S,4S)-4-methyl-1-(pyrimidin-2-ylmethyl)pyrrolidin-3-yl]-1-(tetrahydro-2H-pyran-4-yl)-1H-pyrazolo[3,4-d]pyrimidin-4(5H)-one, reference compound] |  |  |  | 1000 to 10000 |  |  |  | IC50 ([12]; recombinant enzyme): 1000 to 10000 nM
5 | O=C(CCCCCCC(=O)Nc1ccccc1)NO [Vorinostat, reference compound] | > 10000 |  | +++ (basal×2≦(+++)<basal×3) | > 10000 |  | N.E. (N.E. means No Effect) |  | 
